# ChEMBL document CHEMBL4425100, “Design, Synthesis, and Evaluation of in Vitro and in Vivo Anticancer Activity of 4-Substituted Coumarins: A Novel Class of Potent Tubulin Polymerization Inhibitors” (J Med Chem, 2016)
# Counter-ions that a name gives are not always drawn. The source made the active and inactive calls. The calls are words filed in the database; no cut-off is given here.
# What was measured:
# [1] = test system: HepG2; test: cells; conditions: Homo sapiens, HepG2, 24 h
# Description: Antiproliferative activity against human HepG2 cells after 24 hrs by MTT assay
# [2] = test system: SK-OV-3; test: Antiproliferative activity against human SKOV3 cells after 24 hrs by MTT assay; type: functional, cell-based; conditions: SK-OV-3, 24 h
# [3] = test system: HCT-116; test: Antiproliferative activity against human HCT116 cells after 24 hrs by MTT assay; type: functional, cell-based; conditions: HCT-116, 24 h
# [4] = Solubility of the compound in […] ethanol/[…] Tween-80 at 1 mg; type: physicochemical
# [5] = biological target: T1, Tubulin (Homo sapiens) (UniProt P68371+Q9H4B7+P0DPH7+P68366+Q13509+Q71U36+P04350+Q3ZCM7+P07437+P68363+Q9BQE3+Q6PEY2+Q13885+Q9BVA1+Q9BUF5); test: Binding affinity to tubulin in human HepG2 cells assessed as induction of abnormal chromosomal aggregation at 100 nM after 16 to 24 hrs by DAPI staining-based immunofluorescence microscopy; type: cell-based
# [6] = biological target: T1, Tubulin (Homo sapiens); test: Binding affinity to tubulin in human HepG2 cells assessed as inhibition of microtubule network formation in cytosol at 100 nM after 16 to 24 hrs by DAPI staining-based immunofluorescence microscopy; type: cell-based
# [7] = Toxicity in mouse allografted with mouse C26 cells assessed as mortality at 2.5 to 5 mg/kg, iv qd administered every 2 days measured daily during compound dosing; type: organism-based; conditions: in vivo, 48 h
# [8] = Toxicity in mouse xenografted with human H460 cells assessed as mortality at 2.5 to 5 mg/kg, iv qd administered every 2 days measured daily during compound dosing; type: organism-based; conditions: in vivo, 48 h
# [9] = Toxicity in mouse xenografted with human H460 cells assessed as body weight loss at 2.5 to 5 mg/kg, iv qd administered every 2 days measured daily during compound dosing; type: organism-based; conditions: in vivo, 48 h
# [10] = biological target: T2, Tubulin (Sus scrofa) (UniProt P02554+P02550); test: Inhibition of porcine brain tubulin polymerization at 10 uM preincubated for 5 mins followed by GTP addition measured every 2 mins by spectrophotometry
# T2 sequence (P02550 whole entry, looked up): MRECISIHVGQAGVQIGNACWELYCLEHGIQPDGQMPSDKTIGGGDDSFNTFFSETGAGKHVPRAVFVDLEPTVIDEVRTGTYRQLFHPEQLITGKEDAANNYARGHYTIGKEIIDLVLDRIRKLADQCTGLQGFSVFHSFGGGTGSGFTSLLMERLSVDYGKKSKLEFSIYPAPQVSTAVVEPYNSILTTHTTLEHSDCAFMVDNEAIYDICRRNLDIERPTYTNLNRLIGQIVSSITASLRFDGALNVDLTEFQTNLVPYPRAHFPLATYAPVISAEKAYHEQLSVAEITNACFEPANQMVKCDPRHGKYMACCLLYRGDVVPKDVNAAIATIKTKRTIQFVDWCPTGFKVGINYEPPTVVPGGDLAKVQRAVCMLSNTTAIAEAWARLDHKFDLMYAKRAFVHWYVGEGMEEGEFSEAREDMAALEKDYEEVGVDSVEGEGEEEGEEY
# T2 sequence (P02554 whole entry, looked up): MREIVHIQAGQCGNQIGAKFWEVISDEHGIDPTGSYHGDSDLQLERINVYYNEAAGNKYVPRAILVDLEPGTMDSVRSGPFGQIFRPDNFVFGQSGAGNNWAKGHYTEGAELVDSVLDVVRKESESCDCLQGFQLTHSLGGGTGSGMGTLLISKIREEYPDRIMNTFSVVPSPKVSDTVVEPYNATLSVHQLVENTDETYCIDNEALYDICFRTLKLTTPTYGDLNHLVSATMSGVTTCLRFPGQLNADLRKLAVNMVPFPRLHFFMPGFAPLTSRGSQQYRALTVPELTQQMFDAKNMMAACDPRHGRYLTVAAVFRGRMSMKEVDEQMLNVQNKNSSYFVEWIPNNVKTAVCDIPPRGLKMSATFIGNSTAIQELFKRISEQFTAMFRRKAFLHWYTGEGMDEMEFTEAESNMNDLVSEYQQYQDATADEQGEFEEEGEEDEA
# [11] = Toxicity in mouse allografted with mouse C26 cells assessed as body weight loss at 2.5 to 5 mg/kg, iv qd administered every 2 days measured daily during compound dosing; type: organism-based; conditions: in vivo, 48 h
# [12] = test system: NCI/ADR-RES; test: Cytotoxicity against P-gp overexpressing human MCF7/ADR cells assessed as reduction in cell growth after 24 hrs by MTT assay; type: functional, cell-based
# [13] = Toxicity in mouse xenografted with P-gp overexpressing human MCF7/ADR cells assessed as body weight loss at 4 mg/kg, iv qd administered every 2 days measured during compound dosing; type: organism-based; conditions: in vivo, 48 h
# [14] = test system: NCI/ADR-RES; test: Antitumor activity against P-gp overexpressing human MCF7/ADR cells xenografted in mouse assessed as tumor growth inhibition at 4 mg/kg, iv qd administered every 2 days measured during compound dosing; type: functional; conditions: 48 h, read-out: TGI
# [15] = biological target: T2, Tubulin (Sus scrofa); test: Inhibition of porcine brain tubulin polymerization preincubated for 5 mins followed by GTP addition measured every 2 mins by spectrophotometry
# [16] = biological target: T1, Tubulin (Homo sapiens); test: Inhibition of microtubule polymerization in human HepG2 cells after 24 hrs by immunofluorescence staining-based confocal microscopy; type: cell-based
# [17] = biological target: Tubulin beta (Homo sapiens) (UniProt P68371+Q9H4B7+Q13509+P04350+Q3ZCM7+P07437+Q13885+Q9BVA1+Q9BUF5+A6NNZ2); test: Competitive binding affinity to beta-tubulin in human HepG2 cells assessed as disappearance of EBI-protein adducts preincubated for 2 hrs followed by EBI addition measured after […] by Western blot analysis; type: cell-based
# [18] = biological target: T1, Tubulin (Homo sapiens); test: Binding affinity to microtubule in human HepG2 cells assessed as inhibition of spindle formation after 24 hrs by immunofluorescence staining-based confocal microscopy; type: cell-based
# [19] = test system: HCT-8; test: Cytotoxicity against vinblastine resistant/P-gp overexpressing human HCT8 cells assessed as reduction in cell growth after 24 hrs by MTT assay; type: functional, cell-based; conditions: HCT-8, 24 h
# [20] = test system: A2780/Taxol; test: Cytotoxicity against beta-tubulin 3 overexpressing human A2780T cells assessed as reduction in cell growth after 24 hrs by MTT assay; type: functional, cell-based
# [21] = test system: MCF7; test: cells; conditions: Homo sapiens, MCF7, 24 h
# Description: Antiproliferative activity against human MCF7 cells after 24 hrs by MTT assay
# [22] = test system: HCT-8; test: Antiproliferative activity against human HCT8 cells after 24 hrs by MTT assay; type: functional, cell-based; conditions: HCT-8, 24 h
# [23] = Toxicity in mouse xenografted with human MCF7 cells assessed as body weight loss at 5 mg/kg, iv qd administered every 2 days measured during compound dosing; type: organism-based; conditions: in vivo, 48 h
# [24] = Toxicity in mouse xenografted with human MCF7 cells assessed as body weight loss at 24 mg/kg, iv qd administered once a week; type: organism-based; conditions: in vivo
# [25] = biological target: T1, Tubulin (Homo sapiens); test: Binding affinity to microtubule in human HepG2 cells assessed as bundling of microtubule fibers near nucleus at 300 nM after 24 hrs by immunofluorescence staining-based confocal microscopy; type: cell-based
# [26] = test system: A2780/Taxol; test: Antitumor activity against beta-tubulin 3 overexpressing human A2780T cells xenografted in mouse assessed as tumor growth inhibition at 30 mg/kg, iv qd administered once a week; type: functional; conditions: read-out: TGI
# [27] = test system: MCF7; test: Antitumor activity against human MCF7 cells xenografted in mouse assessed as tumor growth inhibition at 5 mg/kg, iv qd administered every 2 days measured during compound dosing; type: functional; conditions: 48 h, read-out: TGI
# [28] = Toxicity in mouse xenografted with beta-tubulin 3 overexpressing human A2780T cells assessed as abnormal behavior at 30 mg/kg, iv qd administered once a week; type: organism-based; conditions: in vivo
# [29] = Toxicity in mouse xenografted with beta-tubulin 3 overexpressing human A2780T cells assessed as body weight loss at 30 mg/kg, iv qd administered once a week; type: organism-based; conditions: in vivo
compound,measurement,setting,value
COc1ccc(N(C)c2cc(=O)oc3ccccc23)cc1OCCN1CCOCC1,IC50,[1],> 5 µM
same,IC50,[2],> 5 µM
same,IC50,[3],> 5 µM
C/C=C/C(=O)Nc1cc(N(C)c2cc(=O)oc3ccccc23)ccc1OC,solubility,[4],Insoluble
COC(=O)CCCC(=O)Oc1cc(N(C)c2cc(=O)oc3ccccc23)ccc1OC,solubility,[4],Soluble
same,Activity,[5],Active
same,inhibition of microtubule network formation (active/inactive),[6],Active
CCOC(=O)CCC(=O)Nc1cc(N(C)c2cc(=O)oc3ccccc23)ccc1OC,solubility,[4],Insoluble
CCCCCCCCCC(=O)Oc1cc(N(C)c2cc(=O)oc3ccccc23)ccc1OC,solubility,[4],Insoluble
CCC/C=C/C(=O)Oc1cc(N(C)c2cc(=O)oc3ccccc23)ccc1OC,solubility,[4],Insoluble
COc1ccc(N(C)c2cc(=O)oc3ccccc23)cc1OC(=O)C1CC1,solubility,[4],Insoluble
COc1ccc(N(C)c2cc(=O)oc3ccccc23)cc1OC(=O)CC(C)(C)C,solubility,[4],Insoluble
CC/C=C(\C)C(=O)Nc1cc(N(C)c2cc(=O)oc3ccccc23)ccc1OC,solubility,[4],Insoluble
COc1ccc(N(C)c2cc(=O)oc3ccccc23)cc1OC(=O)C(C)(C)C,solubility,[4],Insoluble
COc1ccc(N(C)c2nc(C)nc3ccccc23)cc1 [VERUBULIN],IC50,[1],0.0046 µM
same,IC50,[2],0.0032 µM
same,IC50,[3],0.0043 µM
same,Activity,[7],Toxic
same,Activity,[8],Toxic
same,Activity,[9],Toxic
same,inhibition,[10],Active
same,Activity,[11],Toxic
COc1cccc2c1C(=O)c1c(O)c3c(c(O)c1C2=O)C[C@@](O)(C(=O)CO)C[C@@H]3O[C@H]1C[C@H](N)[C@H](O)[C@H](C)O1 [DOXORUBICIN HYDROCHLORIDE],IC50,[12],8.15 µM
same,Activity,[13],Toxic
same,inhibition in vivo at 4 mg/kg,[14],33.3%
COc1ccc(N(C)c2cc(=O)oc3ccccc23)cc1NC(=O)CCCCCl,solubility,[4],Soluble
same,inhibition,[15],Dose-dependent effect
same,Activity,[5],Active
same,inhibition of microtubule network formation (active/inactive),[6],Active
same,inhibition,[16],Dose-dependent effect
same,Activity,[17],Dose-dependent effect
same,inhibition,[18],Dose-dependent effect
COc1ccc(N(C)c2cc(=O)oc3ccccc23)cc1N,solubility,[4],Insoluble
COc1ccc(N(C)c2cc(=O)oc3ccccc23)cc1O,solubility,[4],Insoluble
COc1ccc(N(C)c2cc(=O)oc3ccccc23)cc1OC(=O)CBr,solubility,[4],Insoluble
COc1cc2c(c(OC)c1OC)-c1ccc(OC)c(=O)cc1[C@@H](NC(C)=O)CC2 [COLCHICINE],IC50,[1],0.0428 µM
same,IC50,[19],2.43 µM
same,IC50,[2],0.0519 µM
same,IC50,[20],8.67 µM
CC/C=C(\C)C(=O)Oc1cc(N(C)c2cc(=O)oc3ccccc23)ccc1OC,solubility,[4],Soluble
same,Activity,[5],Active
same,inhibition of microtubule network formation (active/inactive),[6],Active
COc1ccc2c(-c3ccc(-c4ccc5c(c4)OCO5)s3)cc(=O)oc2c1,IC50,[1],> 5 µM
same,IC50,[2],> 5 µM
same,IC50,[3],> 5 µM
C=CCCC(=O)Oc1cc(N(C)c2cc(=O)oc3ccccc23)ccc1OC,solubility,[4],Insoluble
COc1ccc(N(C)c2cc(=O)oc3ccccc23)cc1OC(=O)CCl,solubility,[4],Insoluble
CC[C@]1(O)C[C@@H]2CN(CCc3c([nH]c4ccccc34)[C@@](C(=O)OC)(c3cc4c(cc3OC)N(C)[C@H]3[C@@](O)(C(=O)OC)[C@H](OC(C)=O)[C@]5(CC)C=CCN6CC[C@]43[C@@H]65)C2)C1 [VINBLASTINE],IC50,[12],5.85 µM
same,IC50,[19],5.21 µM
same,IC50,[21],0.0547 µM
same,IC50,[22],0.0148 µM
same,IC50,[20],6.9 µM
C=CC(=O)Oc1cc(N(C)c2cc(=O)oc3ccccc23)ccc1OC,solubility,[4],Insoluble
COc1ccc(N(C)c2cc(=O)oc3ccccc23)cc1OC(=O)C=C(C)C,solubility,[4],Insoluble
C=CCCC(=O)Nc1cc(N(C)c2cc(=O)oc3ccccc23)ccc1OC,solubility,[4],Soluble
same,Activity,[5],Active
same,inhibition of microtubule network formation (active/inactive),[6],Active
CCCCC(=O)Oc1cc(N(C)c2cc(=O)oc3ccccc23)ccc1OC,solubility,[4],Insoluble
CCCCCC(=O)Oc1cc(N(C)c2cc(=O)oc3ccccc23)ccc1OC,solubility,[4],Insoluble
COC(=O)CCCC(=O)Nc1cc(N(C)c2cc(=O)oc3ccccc23)ccc1OC,solubility,[4],Soluble
same,Activity,[5],Active
same,inhibition of microtubule network formation (active/inactive),[6],Active
C=C(C)C(=O)Oc1cc(N(C)c2cc(=O)oc3ccccc23)ccc1OC,solubility,[4],Insoluble
CCC(=O)Oc1cc(N(C)c2cc(=O)oc3ccccc23)ccc1OC,solubility,[4],Insoluble
CCOC(=O)CCC(=O)Oc1cc(N(C)c2cc(=O)oc3ccccc23)ccc1OC,solubility,[4],Insoluble
CCCCCCCCCC(=O)Nc1cc(N(C)c2cc(=O)oc3ccccc23)ccc1OC,solubility,[4],Insoluble
CC(=O)O[C@H]1C(=O)[C@@]2(C)[C@H]([C@H](OC(=O)c3ccccc3)[C@]3(O)C[C@H](OC(=O)[C@H](O)[C@@H](NC(=O)c4ccccc4)c4ccccc4)C(C)=C1C3(C)C)[C@]1(OC(C)=O)CO[C@@H]1C[C@@H]2O [PACLITAXEL],Activity,[23],Toxic
same,IC50,[12],9.15 µM
same,IC50,[19],0.189 µM
same,Activity,[24],Toxic
same,Activity,[25],Active
same,inhibition in vivo at 30 mg/kg,[26],37.7%
same,inhibition in vivo at 5 mg/kg,[27],59.2%
same,Activity,[28],Toxic
same,Activity,[29],Toxic
same,IC50,[20],56.6 µM
COc1ccc(N(C)c2cc(=O)oc3ccccc23)cc1OC(C)=O,solubility,[4],Insoluble
COc1ccc(-c2ccc(-c3cc(=O)oc4cc(OC)ccc34)s2)cc1,IC50,[1],> 5 µM
same,IC50,[2],> 5 µM
same,IC50,[3],> 5 µM
CCCCCC(=O)Nc1cc(N(C)c2cc(=O)oc3ccccc23)ccc1OC,solubility,[4],Insoluble
COc1ccc(N(C)c2cc(=O)oc3ccccc23)cc1OC(=O)CCCCCl,solubility,[4],Soluble
same,Activity,[5],Active
same,inhibition of microtubule network formation (active/inactive),[6],Active
C/C=C/C(=O)Oc1cc(N(C)c2cc(=O)oc3ccccc23)ccc1OC,solubility,[4],Soluble
same,Activity,[5],Active
same,inhibition of microtubule network formation (active/inactive),[6],Active
COc1ccc2c(N(C)c3ccc(OC)c(O)c3)cc(=O)oc2c1,solubility,[4],Insoluble
